From patent US11124758B2, “Bacteria culture medium and applications thereof” (priority 2013, dated 2021)
Where two headings read alike, the source gives them in different places.

Assays:
[1] = tested on: E. coli DH5α strain; test: Shelf life test of antibiotic premixed in culture medium: suppression of E. coli growth after storage; format: cell-based; details: for shelf life of culture media containing the antibiotic: 100 μg/ml, LB medium, storage at 4° C.; for suppression of growth of E. coli DH5α after storage: 6, 12, 18 and 24 months at 4° C.
[2] = in human body; cited from earlier work
[3] = less than 25° C.; cited from earlier work
[4] = 4° C.; cited from earlier work
[5] = 4° C., cited from earlier work
[6] = 100 μg/ml or 1 mg/ml in LB liquid and LB agar plate medium, two months of storage at 4° C., incubated overnight at 37° C.
[7] = 10 mg/ml in LB liquid and LB agar plate medium, three months of storage at 4° C.
[8] = 100 mg/ml in LB liquid and LB agar plate medium, four months of storage at 4° C.

**Q.** What does the source list for `CC1(C)S[C@@H]2[C@H](NC(=O)C(C(=O)O)c3ccccc3)C(=O)N2[C@H]1C(=O)O` (stereo partly drawn) [carbenicillin]?
**A.** suppression of E. coli growth after storage [1, 6]: unable to suppress E. coli growth completely; shelf life of culture media containing the antibiotic [1]: no more than two; suppression of E. coli growth after storage [1, 7]: unable to suppress E. coli growth completely; suppression of E. coli growth after storage [1, 8]: unable to suppress E. coli growth completely

**Q.** With `CC1(C)S[C@@H]2[C@H](NC(=O)Cc3ccccc3)C(=O)N2[C@H]1C(=O)O.CC1(C)S[C@@H]2[C@H](NC(=O)Cc3ccccc3)C(=O)N2[C@H]1C(=O)O.c1ccc(CNCCNCc2ccccc2)cc1` [benzathine benzylpenicillin] as the compound, how does the “suppression of growth of E. coli DH5α after storage” value ([1]; 0.5 and 2.5 mg/ml, LB liquid and LB agar plate medium) read?
**A.** able to completely suppress the growth

**Q.** What about the “suppression of growth of E. coli DH5α after storage” value ([1]; 0.5 and 2.5 mg/ml, SOC liquid and SOC agar plate medium) of the same compound?
**A.** able to completely suppress the growth

**Q.** And the “duration of medicine effect” value [2]?
**A.** 3-4 weeks

**Q.** For `CC1(C)S[C@@H]2[C@H](NC(=O)Cc3ccccc3)C(=O)N2[C@H]1C(=O)O.c1ccc(CCNCc2ccccc2)cc1` [benethamine penicillin], which “suppression of growth of E. coli DH5α after storage” value ([1]; 5 and 25 mg/ml, M9 minimal liquid and agar plate medium) is on record?
**A.** able to completely suppress the growth

**Q.** And the “suppression of growth of E. coli DH5α after storage” value ([1]; 5 and 25 mg/ml, TB liquid and TB agar plate medium)?
**A.** able to completely suppress the growth

**Q.** What does the source list for `CC(=O)OCC1=C(C(=O)O)N2C(=O)[C@@H](NC(=O)CSc3ccncc3)[C@H]2SC1.CC(=O)OCC1=C(C(=O)O)N2C(=O)[C@@H](NC(=O)CSc3ccncc3)[C@H]2SC1.c1ccc(CNCCNCc2ccccc2)cc1` [cephapirin benzathine]?
**A.** suppression of growth of E. coli DH5α after storage ([1]; 0.25 and 1 mg/ml, M9 minimal liquid and agar plate medium): able to completely suppress the growth; suppression of growth of E. coli DH5α after storage ([1]; 0.25 and 1 mg/ml, YT liquid and YT agar plate medium): able to completely suppress the growth; time injection suspension can be stored stably [3]: ≤ 36 months

**Q.** With `Cc1onc(-c2ccccc2Cl)c1C(=O)N[C@@H]1C(=O)N2[C@@H]1SC(C)(C)[C@@H]2C(=O)O.Cc1onc(-c2ccccc2Cl)c1C(=O)N[C@@H]1C(=O)N2[C@@H]1SC(C)(C)[C@@H]2C(=O)O.c1ccc(CNCCNCc2ccccc2)cc1` [cloxacillin benzathine] as the compound, how does the “suppression of growth of E. coli DH5α after storage” value ([1]; 0.5 and 2.5 mg/ml, YPD liquid and YPD agar plate medium) read?
**A.** able to completely suppress the growth

**Q.** What about the “suppression of growth of E. coli DH5α after storage” value ([1]; 0.5 and 2.5 mg/ml, YT liquid and YT agar plate medium) of the same compound?
**A.** able to completely suppress the growth

**Q.** What does the source list for `CC1(C)S[C@@H]2[C@H](NC(=O)Cc3ccccc3)C(=O)N2[C@H]1C(=O)O.CCN(CC)CCOC(=O)c1ccc(N)cc1` [procaine penicillin]?
**A.** suppression of growth of E. coli DH5α after storage ([1]; 10, 40 and 80 mg/ml, LB liquid and LB agar plate medium): able to completely suppress the growth; suppression of growth of E. coli DH5α after storage ([1]; 10, 40 and 80 mg/ml, SOC liquid and SOC agar plate medium): able to completely suppress the growth; duration of medicine effect [2]: ≤ 48 h

**Q.** Which “suppression of E. coli growth after storage” value (“suppression of E. coli growth” for short) [1, 6] does the source give for `CC1(C)S[C@@H]2[C@H](NC(=O)[C@H](N)c3ccccc3)C(=O)N2[C@H]1C(=O)O` [ampicillin] here?
**A.** unable to suppress E. coli growth completely

**Q.** And the “shelf life of culture media containing the antibiotic” value [1]?
**A.** no more than two

**Q.** What about the “suppression of E. coli growth” value [1, 7] of the same compound?
**A.** unable to suppress E. coli growth completely

**Q.** What about the “suppression of E. coli growth” value [1, 8] of the same compound?
**A.** unable to suppress E. coli growth completely

**Q.** What about the “time liquid culture medium and semi-solid agar culture plate medium containing the antibiotic can be kept” value [4] of the same compound?
**A.** about one

**Q.** What about the “time in which activity reduces by 10%” value ([5]; dissolved in glucose injection solution) of the same compound?
**A.** around 1 hour

**Q.** What about the “time in which activity reduces by 10%” value ([5]; dissolved in water or physiological saline (0.9% sodium chloride)) of the same compound?
**A.** 2 to 3 days
